Data as given in PubChem BioAssay (NCI).
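These data come from cells grown in 96-well plates and exposed to compound for 48 hours at five concentrations. Here, GI50 denotes the concentration required for 50% inhibition of growth. TGI denotes the concentration required for complete inhibition of growth.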

Columns and labels:
Experiment in all cases: NCI anticancer screen, dose series, 48 h
T-47D breast = test system: T-47D breast
COLO 205 colon = test system: COLO 205 colon
ACHN renal = test system: ACHN renal
SW-620 colon = test system: SW-620 colon
OVCAR-5 ovarian = test system: OVCAR-5 ovarian
UACC-257 melanoma = test system: UACC-257 melanoma
SK-MEL-28 melanoma = test system: SK-MEL-28 melanoma
TK-10 renal = test system: TK-10 renal
UO-31 renal = test system: UO-31 renal
CCRF-CEM leukemia = test system: CCRF-CEM leukemia

| Structure (SMILES) | TGI (T-47D breast) [µM] | TGI (COLO 205 colon) [µM] | TGI (ACHN renal) [µM] | TGI (SW-620 colon) [µM] | TGI (OVCAR-5 ovarian) [µM] | TGI (UACC-257 melanoma) [µM] | TGI (SK-MEL-28 melanoma) [µM] | TGI (TK-10 renal) [µM] | TGI (UO-31 renal) [µM] | TGI (CCRF-CEM leukemia) [µM] | GI50 (CCRF-CEM leukemia) [nM] | GI50 (ACHN renal) [nM] | GI50 (SW-620 colon) [nM] | GI50 (OVCAR-5 ovarian) [nM] | GI50 (SK-MEL-28 melanoma) [µM] | GI50 (TK-10 renal) [nM] | GI50 (UO-31 renal) [nM] |
| --- | --- | --- | --- | --- | --- | --- | --- | --- | --- | --- | --- | --- | --- | --- | --- | --- | --- |
| O=C(O)C1C(C(=O)O)C23CC2(C(=O)O)C2(C(=O)O)CCC3=C3CCCC312 (centres undefined) | 53.5 | 16.8 | 59.2 | > 100 | 47.3 | 15.4 | 29.9 | 38.1 | 33.2 |  |  |  |  |  |  |  |  |
| Cc1ccc([N+](=O)[O-])cc1NC(=O)c1cccc([N+](=O)[O-])c1O |  | 32.2 | 95.9 | > 100 |  | 39.5 | 51.2 | 93.8 | 36.2 | 83.7 |  |  |  |  |  |  |  |
| C=C1C(=O)OC2C=C(CCC(C)=O)C(C)C(OC(C)=O)CC12 (centres undefined) |  |  | 19.7 | 1.22 | 29.6 |  | 20.8 | 24.4 | 26.6 | 12.4 |  |  |  |  |  |  |  |
| O=C1CCCC(=O)N1CCc1c[nH]c2ccccc12 |  |  | > 100 | > 100 | > 100 | > 100 | > 100 | > 100 | > 100 | > 100 |  |  |  |  |  |  |  |
| COc1cc(C(O)C(=O)c2nc3ccc([N+](=O)[O-])cc3[nH]c2=O)ccc1O (centres undefined) |  | > 100 | > 100 | > 100 | > 100 |  | > 100 | > 100 | > 100 | > 100 |  |  |  |  |  |  |  |
| COc1ccc(CC(=O)NCCc2ccc(OC)c(OC)c2)cc1Br |  | > 100 | > 100 | > 100 | > 100 | > 100 | > 100 | > 100 | > 100 | > 100 |  |  |  |  |  |  |  |
| Cc1c(C(=O)CC(=O)C(=O)Nc2ccc(Cl)cc2)[n+](=O)c2ccccc2n1[O-] |  | > 100 | > 100 | > 100 | > 100 | > 100 | > 100 | > 100 | > 100 | > 100 |  |  |  |  |  |  |  |
| Cc1cc(NS(=O)(=O)c2ccc(NC(=O)c3ccc(Cl)c4c(Nc5ccc(S(=O)(=O)N=C(N)N)cc5)c5ccccc5nc34)cc2)no1 |  |  | > 100 |  | > 100 | > 100 | > 100 | > 100 | > 100 | 67.2 |  |  |  |  |  |  |  |
| O=C(O)c1cc(-c2ccncc2)nc2ccccc12 | > 100 | > 100 | > 100 | > 100 | > 100 | > 100 | > 100 | > 100 | > 100 |  |  |  |  |  |  |  |  |
| O=C(NCCCCCCNC(=O)OCCSCCn1cc(C(=O)NC(=O)OCc2ccccc2)c(=O)[nH]c1=O)OCCSCCn1cc(C(=O)NC(=O)OCc2ccccc2)c(=O)[nH]c1=O |  | > 100 | > 100 | > 100 | > 100 | > 100 |  | > 100 | > 100 | > 100 |  |  |  |  |  |  |  |
| O=C(c1ccccc1)[C@@H]1C[C@H](Sc2ccccc2)c2cc(Cl)ccc2N1 |  | > 100 | > 100 | 59.8 | > 100 | 37.4 | 58.9 | 79.6 | 56.7 |  |  |  |  |  |  |  |  |
| c1ccc2cc3[s+]snc3cc2c1 |  | > 100 | > 100 | > 100 | > 100 | > 100 | > 100 | > 100 | > 100 | > 100 |  |  |  |  |  |  |  |
| COc1ccc(/C(=N\O)c2cc(C)c(OC)c(C)c2)cc1O |  |  | > 100 | > 100 | > 100 |  | > 100 | > 100 | > 100 | > 100 | 18.5 | < 10 | < 10 | 63.1 | 20.9 | 78 | 70.9 |
| O=C(O)CCC(NC(=O)c1ccccc1)C(=O)O (centres undefined) |  | > 100 | > 100 | > 100 | > 100 | > 100 | > 100 | > 100 | > 100 | > 100 |  |  |  |  |  |  |  |
| COC(=O)NN=C1C(C)(C)C(=O)C1(C)C |  | > 100 | > 100 | > 100 | > 100 | > 100 | > 100 | > 100 | > 100 | > 100 |  |  |  |  |  |  |  |
| CC(C)(CN1CCCCC1)C(=O)/C=C/c1ccc(Cl)cc1 |  | 17.5 | 17.2 | 10.8 | 23.5 | 19.9 | 22.6 | 29.1 | 20.2 | 7 |  |  |  |  |  |  |  |
| O=C1C2C=CC(C2)C(c2ccc(O)cc2)N1O (centres undefined) |  | > 100 | > 100 | > 100 | > 100 | > 100 | > 100 | > 100 | > 100 | > 100 |  |  |  |  |  |  |  |
